We go through 3 molecules from paper PMC10916402, “Meropenem-ANT3310, a unique β-lactam-β-lactamase inhibitor combination with expanded antibacterial spectrum against Gram-negative pathogens including carbapenem-resistant Acinetobacter baumannii” (Antimicrobial Agents and Chemotherapy, 2024).

Usually MIC50 stands for an inhibitory concentration at the 50% level, which refers to growth in some studies and to a panel of isolates in others. Broadly, the MIC90 is an inhibitory concentration at the 90% level, which refers to growth in some studies and to a panel of isolates in others. What is called IC50 is the concentration needed to halve the response being measured. By MIC is commonly meant the smallest concentration in the dilution series that meets the test's criterion for growth inhibition.

In brackets after ≈: the same amount, converted by molar mass. Like-named read-outs stand apart in the source and are kept apart here.

For assay [1], the system named is OXA- or KPC-Enterobacterales clinical isolates. Briefly: Broth microdilution MIC, OXA- or KPC-positive Enterobacterales. The assay is classed as cell-based. As for the experimental part: (§1) All isolates were randomly selected from the frozen culture collection of IHMA collected in 2018 and 2019. Matrix-assisted laser desorption ionization-time of flight mass spectrometry was used to confirm the identity of the organisms tested (Bruker Daltonics, Bremen, Germany).
(§2) MICs for all antimicrobial agents were determined at IHMA by broth microdilution in accordance with both CLSI ([17]) and EUCAST ([18]) guidelines. Microtiter panels were prepared by IHMA and stored at −70°C in cation-adjusted Mueller Hinton broth (CAMHB) (Becton Dickinson). Iron-depleted CAMHB was used to test cefiderocol. Panels containing ANT3310 were prepared fresh on the day of testing. […] MIC values corresponded to the first well with no visible growth. Quality control testing was performed on each day of testing with E. coli ATCC 25922, P. aeruginosa ATCC 27853, K. pneumoniae ATCC 700603 and BAA 1705, and A. baumannii NCTC 13304. MICs were interpreted using 2023 CLSI ([17]) and EUCAST ([18]) BPs.
(In broth dilution the organism is exposed to a series of concentrations in liquid medium.)

A further assay concerns the target OXA-23 (Acinetobacter baumannii, UniProt Q9L4P2). Briefly: In vitro SBL inhibition assay (nitrocefin hydrolysis), IC50. The assay is classed as biochemical. The settings on record: 10 min preincubation, 30°C, read-out: Enzyme IC50. Here is the method: (§3) Nitrocefin (Sigma-Aldrich, St Louis, MO, USA), a chromogenic cephalosporin antibiotic (λ, 482 nm; εM, 15,000 M^−1.cm^−1), was used as a reporter substrate at 100 µM for KPC-2, OXA-23, and OXA-48, at 200 µM for OXA-24 and OXA-51, and at 50 µM for OXA-58. Enzymes were preincubated in the presence of varying concentrations of each compound (0.006 to 3000 nM, diluted twofold in dimethyl sulfoxide (DMSO) for KPC-2, OXA-23, and OXA-48 assays and 0.51 to 10,000 nM diluted threefold in DMSO for OXA-24, OXA-51, and OXA-58) for 10 min at 30°C. Nitrocefin was then added and its hydrolysis by the uninhibited enzyme fraction was followed at an absorbance wavelength of 482 nm for 10 min at 30°C using Envision UV fluorescence plate reader (Perkin Elmer, Waltham, MA, USA). Hydrolysis rate data were used to determine inhibitory activities, expressed in IC50 values [corresponding to the compound concentration (µM) required to inhibit 50% of enzymatic reaction].

In the next assay the target is OXA-48 (Klebsiella pneumoniae, UniProt Q6XEC0). Described as above. The assay is classed as biochemical. As to conditions: 10 min preincubation, 30°C, read-out: Enzyme IC50. As for the experimental part:
as §3

The next assay has as its target OXA-24/40 (Acinetobacter baumannii, UniProt Q8RLA6). The assay is described as above. The assay is classed as biochemical. As to conditions: 10 min preincubation, 30°C, read-out: Enzyme IC50. As for the experimental part:
as §3

The target in a further assay is KPC-2 (Klebsiella pneumoniae, UniProt Q9F663). The assay is described as above. The assay is classed as biochemical. Here is the method:
as §3

The next assay addresses OXA-58 (Acinetobacter baumannii, UniProt Q2TR58). Described as above. The assay is classed as biochemical, A. baumannii. Here is the method:
as §3

A further assay has as its target OXA-51 (Acinetobacter baumannii, UniProt Q5QT35). Described as above. The assay is classed as biochemical, A. baumannii. As to conditions: 10 min preincubation, 30°C, read-out: Enzyme IC50. As for the experimental part:
as §3

Assay [2] relates to A. baumannii clinical isolates. Nature of the assay: Broth microdilution MIC, A. baumannii clinical isolates. The assay is classed as cell-based, Acinetobacter baumannii. As to conditions: for MIC50: read-out: MIC50. A digest of the protocol: (§4)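 Broth microdilution per CLSI and EUCAST in cation-adjusted Mueller Hinton broth, iron-depleted for cefiderocol; ANT3310 panels prepared fresh on test day. Isolates collected 2018–2019, identity confirmed by MALDI-TOF. MIC taken as first well without visible growth, interpreted with 2023 CLSI and EUCAST breakpoints.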

Assay [3] relates to P. aeruginosa clinical isolates. Nature of the assay: Broth microdilution MIC, P. aeruginosa clinical isolates. The assay is classed as cell-based, Pseudomonas aeruginosa. As to conditions: ANT3310 alone, P. aeruginosa N 502. As for the experimental part: as §1, §2
The subject of assay [4] is Enterobacterales, P. aeruginosa and A. baumannii clinical isolates. Nature of the assay: Intrinsic antibacterial activity of ANT3310 alone, all 1,207 isolates. The assay is classed as cell-based. Here is the method:
as §1, §2

The test system of assay [5] is A. baumannii ACC00445 (OXA-23). Nature of the assay: MIC against the isolate used in the infection models. The assay is classed as cell-based. The settings on record: Acinetobacter baumannii. Here is the method:
as §2

Assay [6] has as its system OXA-producing Enterobacterales (OXA-CRE). Briefly: organism not typed. The assay is classed as cell-based. A digest of the protocol:
as §4

In assay [7] the test system is KPC-producing Enterobacterales (KPC-CRE). Briefly: organism not typed. The assay is classed as cell-based. A digest of the protocol: as §4
Assay [8] relates to carbapenem-resistant Acinetobacter baumannii (CRAB) clinical isolates. Nature of the assay: Broth microdilution MIC, CRAB isolates. The assay is classed as cell-based. The settings on record: 2018 Global collection, CRAB (MEM MICs >4 µg/mL), N 363. A digest of the protocol:
as §4

Setting [9] is: ANT3310 alone, OXA- or KPC-Enterobacterales N 300.
[10] abbreviates: ANT3310 alone, A. baumannii N 405.
[11] abbreviates: 2018 Global collection, All A. baumannii, N 500.

OXA-51, sequence (Q5QT35 entry or part of it): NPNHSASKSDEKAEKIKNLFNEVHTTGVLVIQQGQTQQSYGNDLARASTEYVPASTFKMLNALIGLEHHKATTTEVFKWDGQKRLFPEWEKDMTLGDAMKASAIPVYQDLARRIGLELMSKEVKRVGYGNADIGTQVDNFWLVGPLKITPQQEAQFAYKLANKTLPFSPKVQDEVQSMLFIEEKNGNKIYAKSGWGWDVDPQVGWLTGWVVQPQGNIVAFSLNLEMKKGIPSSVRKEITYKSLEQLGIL
KPC-2, sequence (Q9F663 25-293 limits assumed): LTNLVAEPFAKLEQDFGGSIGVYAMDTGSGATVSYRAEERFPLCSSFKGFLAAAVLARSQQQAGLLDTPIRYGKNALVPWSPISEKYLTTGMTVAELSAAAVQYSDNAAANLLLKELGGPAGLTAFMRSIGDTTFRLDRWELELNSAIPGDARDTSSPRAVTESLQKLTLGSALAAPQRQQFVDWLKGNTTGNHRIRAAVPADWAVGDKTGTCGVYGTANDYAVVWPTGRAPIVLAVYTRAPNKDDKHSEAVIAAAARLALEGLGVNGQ
OXA-24/40, sequence (Q8RLA6 22-275): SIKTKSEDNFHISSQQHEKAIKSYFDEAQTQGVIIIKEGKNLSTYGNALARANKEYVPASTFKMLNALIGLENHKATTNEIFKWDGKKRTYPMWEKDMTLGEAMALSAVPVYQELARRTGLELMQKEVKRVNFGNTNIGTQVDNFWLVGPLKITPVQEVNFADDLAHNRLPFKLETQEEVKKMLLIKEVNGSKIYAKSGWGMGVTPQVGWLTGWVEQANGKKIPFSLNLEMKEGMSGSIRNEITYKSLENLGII
OXA-23, sequence (Q9L4P2 18-273): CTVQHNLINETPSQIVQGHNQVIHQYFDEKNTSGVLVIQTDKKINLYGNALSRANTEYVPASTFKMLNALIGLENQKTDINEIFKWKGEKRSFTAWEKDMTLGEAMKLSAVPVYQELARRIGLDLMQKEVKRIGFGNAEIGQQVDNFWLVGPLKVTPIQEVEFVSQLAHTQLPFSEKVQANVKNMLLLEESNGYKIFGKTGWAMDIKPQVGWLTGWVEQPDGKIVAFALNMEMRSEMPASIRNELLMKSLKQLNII
OXA-48, sequence (Q6XEC0 23-265, looked up, species assumed): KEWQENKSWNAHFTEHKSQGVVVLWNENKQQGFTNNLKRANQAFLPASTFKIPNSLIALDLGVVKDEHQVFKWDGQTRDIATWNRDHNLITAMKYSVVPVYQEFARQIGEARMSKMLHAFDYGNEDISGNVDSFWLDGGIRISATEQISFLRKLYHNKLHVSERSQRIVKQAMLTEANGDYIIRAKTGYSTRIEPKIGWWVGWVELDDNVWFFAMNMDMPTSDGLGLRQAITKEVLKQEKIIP
OXA-58, sequence (Q2TR58 19-280): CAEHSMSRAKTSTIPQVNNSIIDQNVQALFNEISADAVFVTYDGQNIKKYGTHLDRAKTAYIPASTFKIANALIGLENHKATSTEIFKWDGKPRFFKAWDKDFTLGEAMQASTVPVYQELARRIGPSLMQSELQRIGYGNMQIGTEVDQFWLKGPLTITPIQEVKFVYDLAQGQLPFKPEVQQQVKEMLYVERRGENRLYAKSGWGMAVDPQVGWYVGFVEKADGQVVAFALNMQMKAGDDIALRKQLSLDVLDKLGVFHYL

On to `O=C1N2C[C@@H](CC[C@H]2F)N1OS(=O)(=O)O` [ANT3310], for which the MIC50 is greater than 64 µg/mL in assay [1]; greater than 64 µg/mL in [1] (setting [9]); 64 µg/mL (≈ 266 µM) in assay [2] (Acinetobacter baumannii, ANT3310 alone, A. baumannii N 405); greater than 64 µg/mL in [3]; greater than 64 µg/mL in assay [3] (Pseudomonas aeruginosa, read-out: MIC50). Besides, the MIC90 is greater than 64 µg/mL in assay [1]; greater than 64 µg/mL in assay [1] (setting [9]); greater than 64 µg/mL in assay [2] (setting [10]); greater than 64 µg/mL in [2] (Acinetobacter baumannii, ANT3310 alone, A. baumannii N 405, read-out: MIC90); greater than 64 µg/mL in [3]; greater than 64 µg/mL in assay [3] (Pseudomonas aeruginosa, read-out: MIC90). In addition, the “Number of isolates inhibited at MIC of 8 µg/mL” value is recorded as 1 in [1] (setting [9]) and 4 in assay [2] (setting [10]). The “Number of isolates inhibited at MIC of 32 µg/mL” value stood at 8 in assay [1] (setting [9]), 11 in assay [2] (setting [10]) and 9 in assay [3]. The results for the “Number of isolates inhibited at MIC of 64 µg/mL” value in assay [1] (setting [9]), in assay [2] (setting [10]) and in assay [3] were 234, 38 and 15, respectively. Further, the “Number of isolates inhibited at MIC of >64 µg/mL” value is reported as 57 in assay [1] (setting [9]), 350 in assay [2] (setting [10]) and 476 in assay [3]. Besides, the IC50 at OXA-23 came to 32.6 nM; at OXA-48, 179 nM; on OXA-24/40, 602 nM; at KPC-2, 19.5 nM; at OXA-58 it was 8 nM; at OXA-51, 542 nM. In assay [2] (setting [10]), the “Number of isolates inhibited at MIC of 4 µg/mL” value was 1. The “Number of isolates inhibited at MIC of 16 µg/mL” value was found to be 1 in [2] (setting [10]) and 2 in assay [3]. For the same molecule, the Intrinsic antibacterial activity entry in [4] (ANT3310 alone, 1,207 isolates) is “No clinically significant antibacterial activity”. In addition, in assay [4] (of the 1,207 isolates tested, ANT3310 alone), the “Number of isolates with ANT3310 MICs ≤8 µg/mL” value is 6.

`CN(C)c1cc(NC(=O)CNC(C)(C)C)c(O)c2c1C[C@H]1C[C@H]3[C@H](N(C)C)C(O)=C(C(N)=O)C(=O)[C@@]3(O)C(O)=C1C2=O` [Tigecycline, tigecycline]: the minimum inhibitory concentration (MIC) in [5] was determined as 2 µg/mL (≈ 3.41 µM). In addition, in assay [6], the MIC50 came out at 2 µg/mL (≈ 3.41 µM) and the MIC90 was determined as 4 µg/mL (≈ 6.83 µM). Also, in assay [7], the MIC50 was determined as 1 µg/mL (≈ 1.71 µM) and the MIC90 was found to be 4 µg/mL (≈ 6.83 µM). In [2] (setting [11]), the “Number of isolates inhibited at MIC of 0.25 µg/mL” value is recorded as 40, the “Number of isolates inhibited at MIC of 0.5 µg/mL” value came out at 41, the “Number of isolates inhibited at MIC of 1 µg/mL” value is 76 and the “Number of isolates inhibited at MIC of 2 µg/mL” value is reported as 162. Moreover, in assay [2] (setting [11]), the “Number of isolates inhibited at MIC of 4 µg/mL” value came out at 140, the “Number of isolates inhibited at MIC of 8 µg/mL” value is 31, the “Number of isolates inhibited at MIC of 16 µg/mL” value is recorded as 4 and the “Number of isolates inhibited at MIC of ≤0.125 µg/mL” value is 6. Besides, in assay [2] (Acinetobacter baumannii, 2018 Global collection, All A. baumannii, N 500), the MIC50 was 2 µg/mL (≈ 3.41 µM). Also, in assay [2] (Acinetobacter baumannii, 2018 Global collection, All A. baumannii, N 500, read-out: MIC90), the MIC90 came to 4 µg/mL (≈ 6.83 µM). Further, in assay [2] (Acinetobacter baumannii, A. baumannii, one or both of the 2018/2019 collections, read-out: MIC90), the MIC90 amounted to 4 µg/mL (≈ 6.83 µM). In [8], the “Number of isolates inhibited at MIC of 0.5 µg/mL” value turned out to be 7, the “Number of isolates inhibited at MIC of 1 µg/mL” value stood at 48, the “Number of isolates inhibited at MIC of 2 µg/mL” value came to 146 and the “Number of isolates inhibited at MIC of 4 µg/mL” value worked out at 131. For the same molecule, in [8], the “Number of isolates inhibited at MIC of 8 µg/mL” value turned out to be 28 and the “Number of isolates inhibited at MIC of 16 µg/mL” value stood at 3. The MIC50 in [8] (Acinetobacter baumannii, read-out: MIC50) is 2 µg/mL (≈ 3.41 µM). In addition, the MIC90 in assay [8] (Acinetobacter baumannii, read-out: MIC90) came out at 4 µg/mL (≈ 6.83 µM).

On to `NCCN[C@H]1CC[C@H](CC(=O)N[C@H]2Cc3cccc(C(=O)O)c3OB2O)CC1` [Tan, taniborbactam], for which the IC50 was greater than 3000 nM on OXA-23; 1560 nM on OXA-48; greater than 10000 nM at OXA-24/40; 15.8 nM against KPC-2; greater than 10000 nM on OXA-58; greater than 10000 nM at OXA-51.
